The text below walks through data of patent US6576620B2, “Method of identifying partial adenosine A1 receptor agonists” (CV Therapeutics, Inc., priority 1999, dated 2003).

One assay relates to Adenosine A1 receptor. Put plainly: A1-agonist stimulated [35S]GTPγS binding to G proteins. Particulars: Table 1, compounds of Example 2; normalized to the full agonist CPA. It is filed as biochemical. The protocol:
At the end of the incubation, each suspension was filtered and the retained radioactivity determined as described above.
For orientation: Binding of GTPγS marks nucleotide exchange on a G protein.
`O=C(N[C@@H]1CCC[C@H]1OCc1ccccc1)OC[C@H]1O[C@@H](n2cnc3c(N[C@@H]4CCOC4)ncnc32)[C@H](O)[C@@H]1O` [Compound 37 of Example 2, {(5-{6 [((3R)oxolan-3-yl)amino]purin-9-yl}(3S,2R,4R,5R)-3,4-dihydroxyoxolan-2-yl)methoxy]-N-[(1R,2R)-2-(phenylmethoxy)cyclopentyl]carboxamide]: the GTPγS was determined as 30%.
`O[C@@H]1[C@H](O)[C@@H](COC(=S)N[C@@H]2CCC[C@H]2OCc2ccccc2)O[C@H]1n1cnc2c(N[C@@H]3CCOC3)ncnc21` [Compound 57 of Example 2, 2-{6-[((3R)oxolan-3-yl)amino]purin-9-yl}(4S,2R,3R,5R)-5-[(([(1R,2R)-2-(phenylmethoxy)cyclopentyl]amino}thioxomethoxy)methyl]oxolane-3,4-diol]: the GTPγS was found to be 67%.
Same read-out and setting: then `O[C@@H]1[C@H](O)[C@@H](CSC(=S)NC2CCCC2)O[C@H]1n1cnc2c(N[C@@H]3CCOC3)ncnc21` [Compound 75 of Example 2], with 91%; and `CCCCNC(=S)OC[C@H]1O[C@@H](n2cnc3c(N[C@@H]4CCOC4)ncnc32)[C@H](O)[C@@H]1O` [Compound 48 of Example 2, 2-{6-[((3R)oxolan-3-yl)amino]purin-9-yl}(4S,2R,3R,5R)-5-{[(butylamino)thioxomethoxy]methyl}oxolane-3,4-diol], with 70%; and `O=C(NC1CCCC1C(=O)O)OC[C@H]1O[C@@H](n2cnc3c(N[C@@H]4CCOC4)ncnc32)[C@H](O)[C@@H]1O` (stereo partly drawn) [Compound 65 of Example 2], with 81%.
Consider `O=C(O)CNC(=O)OC[C@H]1O[C@@H](n2cnc3c(N[C@@H]4CCOC4)ncnc32)[C@H](O)[C@@H]1O` [Compound 68 of Example 2, 2-{[(5-{6-[((3R)oxolan-3-yl)amino]purin-9-yl}(3S,2R,4R,5R)-3,4 dihydroxyoxolan-2-yl)methoxy]carbonylamino}acetic acid], for which the GTPγS is reported as 76%.
On the same count and under the same terms, then `O[C@@H]1[C@H](O)[C@@H](COC(=S)NC2CC2)O[C@H]1n1cnc2c(N[C@@H]3CCOC3)ncnc21` [Compound 59 of Example 2, 2-{6-[((3R)oxolan-3-yl)amino]purin-9-yl}(4S,2R,3R,5R)-5-{[(cyclopropylamino)thioxomethoxy]methyl}oxolane-3,4-diol], with 82%; and `O[C@@H]1[C@H](O)[C@@H](CNC(=S)NC2CCCC2)O[C@H]1n1cnc2c(N[C@@H]3CCOC3)ncnc21` [Compound 78 of Example 2, 2-{6-[((3R)oxolan-3-yl)amino]purin-9-yl}(4S,2R,3R,5R)-5-({[(cyclopentylamino)thioxomethyl]amino}methyl)oxolane-3,4-diol], with 95%.
With `CN(C)C(=S)OC[C@H]1O[C@@H](n2cnc3c(N[C@@H]4CCOC4)ncnc32)[C@H](O)[C@@H]1O` [Compound 53 of Example 2, 2-{6-[((3R)oxolan-3-yl)amino]purin-9-yl}(4S,2R,3R,5R)-5-{[(dimethylamino)thioxomethoxy]methyl}oxolane-3,4-diol], the GTPγS turned out to be 85%.
On to `CCOC(=O)CCNC(=O)OC[C@H]1O[C@@H](n2cnc3c(N[C@@H]4CCOC4)ncnc32)[C@H](O)[C@@H]1O` [Compound 42 of Example 2, Ethyl 3-{[(5-{6-[((3R)oxolan-3-yl)amino]purin-9-yl}(3S, 2R,4R,5R)-3,4-dihydroxyoxolane-2-yl)methoxy}carbonylamino}propanoate], for which the GTPγS was 47%.
Same read-out and setting: then `CNC(=S)SC[C@H]1O[C@@H](n2cnc3c(N[C@@H]4CCOC4)ncnc32)[C@H](O)[C@@H]1O` [Compound 74 of Example 2, 2-{6-[((3R)oxolan-3-yl)amino]purin-9-yl}(4S,5S,2R,3R)-5-{[(methylamino)thioxomethylthio]methyl}oxolane-3,4-diol], with 95%; and `CC(C)NC(=O)OC[C@H]1O[C@@H](n2cnc3c(N[C@@H]4CCOC4)ncnc32)[C@H](O)[C@@H]1O` [Compound 32 of Example 2, {(5-{6-[((3R)oxolan-3-yl)amino]purin-9-yl}(3S,2R,4R,5R)-3,4-dihydroxyoxolan-2-yl)methoxy]-N-(methylethyl)carboxamide], with 91%; and `CNC(=S)NC[C@H]1O[C@@H](n2cnc3c(N[C@@H]4CCOC4)ncnc32)[C@H](O)[C@@H]1O` [Compound 77 of Example 2, 2-{6-[((3R)oxolan-3-yl)amino]purin-9-yl}(4S,2R,3R,5R)-5-({[(methylamino)thioxomethyl]amino}methyl)oxolane-3,4-diol], with 101%.
On the same count and under the same terms, then `O=C(N[C@@H]1CCC[C@H]1O)OC[C@H]1O[C@@H](n2cnc3c(N[C@@H]4CCOC4)ncnc32)[C@H](O)[C@@H]1O` [Compound 62 of Example 2, {(5-{6[((3R)oxolan-3-yl)amino]purin-9-yl}(3S,2R,4R,5R)-3,4-dihydroxyoxolan-2-yl)methoxy]-N-((1R,2R)-2-hydroxycyclopentyl)carboxamide], with 42%.
Turning to `O=C(O)CCNC(=O)OC[C@H]1O[C@@H](n2cnc3c(N[C@@H]4CCOC4)ncnc32)[C@H](O)[C@@H]1O` [Compound 67 of Example 2, 3-{[(5-{6-[((3R)oxolan-3-yl)amino]purin-9-yl}(3S,2R,4R,5R)-3,4 dihydroxyoxolan-2-yl)methoxy]carbonylamino}propanoic acid], the GTPγS came out at 59%.
Turning to `O[C@@H]1[C@H](O)[C@@H](COC(=S)N[C@@H]2CCC[C@H]2O)O[C@H]1n1cnc2c(N[C@@H]3CCOC3)ncnc21` [Compound 63 of Example 2, 2-{6-[((3R)oxolan-3-yl)amino]purin-9-yl}(4S,2R,3R,5R)-5-({[((1R,2R)-2-hydroxycyclopentyl)amino]thioxomethoxy}methyl)oxolane-3,4-diol], the GTPγS stood at 100%.
On to `CCOC(=O)[C@H]1C2C=CC(C2)[C@H]1NC(=O)OC[C@H]1O[C@@H](n2cnc3c(N[C@@H]4CCOC4)ncnc32)[C@H](O)[C@@H]1O` (stereo partly drawn) [Compound 35 of Example 2], for which the GTPγS is listed as 52%.
With “2-{6-[((3R)oxolan-3-yl)amino]purin-9-yl}(4S,2R,3R,5R)-5-{[cyclopentyloxythioxomethyl)amino]methyl}oxolane-3,4-diol [Compound 72 of Example 2]”, the GTPγS is 93%.
As for `COC(=O)CNC(=O)OC[C@H]1O[C@@H](n2cnc3c(N[C@@H]4CCOC4)ncnc32)[C@H](O)[C@@H]1O` [Compound 43 of Example 2, Methyl 2-{[(5-{6-[((3R)oxolan-3-yl)amino]purin-9-yl}(3S, 2R,4R,5R)dihydroxyoxolane-2-yl)methoxy}carbonylamino}acetate], the GTPγS is given as 53%.
Regarding `COC(=S)NC[C@H]1O[C@@H](n2cnc3c(N[C@@H]4CCOC4)ncnc32)[C@H](O)[C@@H]1O` [Compound 71 of Example 2], the GTPγS was determined as 98%.
On the same count and under the same terms, then `O=C(N[C@H]1CCC[C@@H]1OCc1ccccc1)OC[C@H]1O[C@@H](n2cnc3c(N[C@@H]4CCOC4)ncnc32)[C@H](O)[C@@H]1O` [Compound 38 of Example 2, {(5-{6[((3R)oxolan-3-yl)amino]purin-9-yl}(3S,2R,4R,5R)-3,4-dihydroxyoxolan-2-yl)methoxy]-N-[(1 S,2S)-2-(phenylmethoxy)cyclopentyl]carboxamide], with 1%; and `O=C(N[C@H]1CCC[C@@H]1O)OC[C@H]1O[C@@H](n2cnc3c(N[C@@H]4CCOC4)ncnc32)[C@H](O)[C@@H]1O` [Compound 61 of Example 2], with 59%.
For `O=C(NC1CCC1)OC[C@H]1O[C@@H](n2cnc3c(N[C@@H]4CCOC4)ncnc32)[C@H](O)[C@@H]1O` [Compound 39 of Example 2, [(5-{6-[((3R)oxolan-3-yl)amino}purin-9-yl}(3S,2R,4R,5R)-3,4-dihydroxyoxolan-2-yl)methoxy]-N-cyclobutylcarboxamide], the GTPγS is recorded as 67%.
Regarding `O[C@@H]1[C@H](O)[C@@H](COC(=S)N2CCCC2)O[C@H]1n1cnc2c(N[C@@H]3CCOC3)ncnc21` [Compound 52 of Example 2, 2-{6-[((3R)oxolan-3-yl)amino]purin-9-yl}(4S,2R,3R,5R)-5-[(pyrrolidinylthioxomethoxy)methyl]oxolane-3,4-diol], the GTPγS is given as 77%.
The same measure, in the same setting: then `O=C(NC1CC1c1ccccc1)OC[C@H]1O[C@@H](n2cnc3c(N[C@@H]4CCOC4)ncnc32)[C@H](O)[C@@H]1O` (stereo partly drawn) [Compound 40 of Example 2], with −6%; and “N-[(5-{6-[((3R)oxolan-3-yl)amino]purin-9-yl}(3S,2R,4R,5R)-3,4-dihydroxyoxolan-2-yl)methy]cyclopentyloxycarboxamide [Compound 70 of Example 2]”, with 76%.

Staying with this assay, now noted: Table 2, compounds of Example 3; normalized to the full agonist CPA.
Regarding `CCNc1nc2c(N[C@@H]3CCOC3)ncnc2n1[C@@H]1O[C@H](CO)[C@@H](O)[C@H]1O` [Compound 5 of Example 3, 2-{6-[((3R)oxolan-3-yl)amino]-8-(ethylamino)purin-9-yl}(4S,2R,3R,5R)-5-(hydroxymethyl)oxolane-3,4-diol], the GTPγS is listed as 89%.

Still in this assay, the particulars now being: Table 3, compounds of Example 4; normalized to the full agonist CPA.
With `Cc1ccc(SC[C@H]2O[C@@H](n3cnc4c(N[C@@H]5CCOC5)ncnc43)[C@H](O)[C@@H]2O)cc1` [Compound 15 of Example 4, 2-{6-[((3R)oxolan-3-yl)amino]purin-9-yl}(4S,5S,2R,3R)-5-[(4-methylphenylthio)methyl]oxolane-3,4-diol], the GTPγS is given as 48%.
Still for that read-out and setting: then `COc1ccccc1SC[C@H]1O[C@@H](n2cnc3c(N[C@@H]4CCOC4)ncnc32)[C@H](O)[C@@H]1O` [Compound 17 of Example 4, 2-{6-[((3R)oxolan-3-yl)amino]purin-9-yl}(4S,5S,2R,3R)-5-[(2-Methoxyphenylthio)methyl]oxolane-3,4-diol], with 52%; and `O[C@@H]1[C@H](O)[C@@H](CSc2ccc(C(F)(F)F)cc2)O[C@H]1n1cnc2c(N[C@@H]3CCOC3)ncnc21` [Compound 16 of Example 4, 2-{6-[((3R)oxolan-3-yl)amino]purin-9-yl}(4S,5S,2R,3R)-5-[(4-(trifluoromethyl)phenylthio)methyl]oxolane-3,4-diol], with 31%.
